ChEMBL document CHEMBL5154869, “Discovery of 4-((E)-3,5-dimethoxy-2-((E)-2-nitrovinyl)styryl)aniline derivatives as potent and orally active NLRP3 inflammasome inhibitors for colitis” (Eur J Med Chem, 2022)

Assays:
[1] = Metabolic stability in human liver microsomes assessed as intrinsic clearance by LC-MS/MS analysis; type: ADME, Microsome; conditions: read-out: CLH
[2] = Metabolic stability in human hepatocytes assessed as intrinsic clearance by LC-MS/MS analysis; type: ADME, cell-based, Hepatocyte; conditions: read-out: CLH
[3] = Metabolic stability in human liver microsomes assessed as half life by LC-MS/MS analysis; type: ADME, Microsome
[4] = molecular target: NACHT, LRR and PYD domains-containing protein 3 (Mus musculus, UniProt Q8R4B8); assay: Inhibition of NLRP3 inflammasome activation in LPS/nigericin-treated C57BL/6 mouse bone marrow-derived macrophages assessed as reduction in IL-1beta secretion preincubated for 3 hrs with LPS and for 30 mins with compound prior to nigericin addition and measured after 30 mins by ELISA; type: cell-based, BMDM
Sequence of NACHT, LRR and PYD domains-containing protein 3 (Q8R4B8 whole entry, the tested form may be a part): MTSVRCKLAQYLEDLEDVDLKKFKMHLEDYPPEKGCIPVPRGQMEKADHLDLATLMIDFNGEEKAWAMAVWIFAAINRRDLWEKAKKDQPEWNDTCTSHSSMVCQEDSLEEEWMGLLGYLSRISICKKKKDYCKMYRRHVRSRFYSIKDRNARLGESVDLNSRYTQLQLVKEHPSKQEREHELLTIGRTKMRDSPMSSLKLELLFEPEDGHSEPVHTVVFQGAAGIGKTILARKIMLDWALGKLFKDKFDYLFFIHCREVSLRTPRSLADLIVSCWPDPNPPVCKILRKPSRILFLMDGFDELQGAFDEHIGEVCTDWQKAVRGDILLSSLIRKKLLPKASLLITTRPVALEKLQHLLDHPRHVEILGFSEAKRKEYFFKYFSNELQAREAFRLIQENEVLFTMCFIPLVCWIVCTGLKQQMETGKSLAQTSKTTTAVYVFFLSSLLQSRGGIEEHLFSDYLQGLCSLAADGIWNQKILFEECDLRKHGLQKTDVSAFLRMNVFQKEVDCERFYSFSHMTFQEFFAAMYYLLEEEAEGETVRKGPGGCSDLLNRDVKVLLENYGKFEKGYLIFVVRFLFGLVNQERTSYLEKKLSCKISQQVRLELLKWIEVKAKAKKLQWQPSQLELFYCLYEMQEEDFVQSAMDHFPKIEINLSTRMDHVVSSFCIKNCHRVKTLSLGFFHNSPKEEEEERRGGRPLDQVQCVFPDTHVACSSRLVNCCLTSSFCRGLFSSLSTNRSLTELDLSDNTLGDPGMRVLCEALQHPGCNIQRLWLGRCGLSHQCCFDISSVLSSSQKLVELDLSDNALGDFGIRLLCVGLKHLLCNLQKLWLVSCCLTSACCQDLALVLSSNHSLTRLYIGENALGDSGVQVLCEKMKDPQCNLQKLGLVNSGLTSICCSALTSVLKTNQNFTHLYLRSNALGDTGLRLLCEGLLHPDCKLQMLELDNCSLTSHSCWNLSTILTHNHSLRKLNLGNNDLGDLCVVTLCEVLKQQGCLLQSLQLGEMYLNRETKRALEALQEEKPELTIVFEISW

[5] = Cytotoxicity against human L02 cells assessed as reduction in cell viability incubated for 24 hrs by MTT assay; type: toxicity, cell-based
[6] = molecular target: NACHT, LRR and PYD domains-containing protein 3 (Mus musculus) (UniProt Q8R4B8); assay: Inhibition of NLRP3 inflammasome activation in LPS-stimulated mouse J774.A1 cells assessed as reduction in pyroptosis at 10 uM pretreated for 4 hrs with LPS and for 30 mins with compound prior to ATP addition and measured after 30 mins by PI/Hoechst33342 staining based analysis; type: cell-based; conditions: time 60.0 min
Sequence of NACHT, LRR and PYD domains-containing protein 3 (Mus musculus) (Q8R4B8 whole entry, the tested form may be a part): as above

Row | SMILES | microsomal CLint [1] | CLint scaled [2] | half-life [3] | IC50 [4] | IC50 at 24 h [5] | inhibition [6]
1 | COc1cc(/C=C/c2ccc(NC(=O)C3CC3)cc2)c(/C=C/[N+](=O)[O-])c(OC)c1 | 23.2 µL/min/mg | 11.7 mL/min/kg | 59.7 min | – | – | –
2 | COc1cc(/C=C/c2ccc(NC(=O)c3ccccc3Br)cc2)c(/C=C/[N+](=O)[O-])c(OC)c1 | – | – | – | > 10 µM | > 100 µM | 36%
3 | COc1cc(/C=C/c2ccc(NC(=O)/C=C/c3ccccc3)cc2)c(/C=C/[N+](=O)[O-])c(OC)c1 | – | – | – | > 10 µM | > 100 µM | 30.7%
4 | COc1cc(/C=C/c2ccc(NC(=O)c3ccc4ccccc4c3)cc2)c(/C=C/[N+](=O)[O-])c(OC)c1 | – | – | – | > 10 µM | 131 µM | 57.2%
5 | CCc1ccc(C(=O)Nc2ccc(/C=C/c3cc(OC)cc(OC)c3/C=C/[N+](=O)[O-])cc2)cc1 | – | – | – | – | > 100 µM | 39%
6 | COc1cc(/C=C/c2ccc(NC(=O)c3cccc(Cl)c3)cc2)c(/C=C/[N+](=O)[O-])c(OC)c1 | – | – | – | – | > 100 µM | 24%
7 | COc1cc(/C=C/c2ccc(NC(=O)C(C)(C)C)cc2)c(/C=C/[N+](=O)[O-])c(OC)c1 | – | – | – | – | > 100 µM | 52.7%
8 | COc1ccc(C(=O)Nc2ccc(/C=C/c3cc(OC)cc(OC)c3/C=C/[N+](=O)[O-])cc2)cc1 | – | – | – | > 10 µM | > 100 µM | 41%
9 | COc1cc(/C=C/c2ccc(NC(=O)c3ccc(C)o3)cc2)c(/C=C/[N+](=O)[O-])c(OC)c1 | – | – | – | – | > 100 µM | 69.5%
10 | COc1cc(/C=C/c2ccc(NC(=O)c3cccc(Br)c3)cc2)c(/C=C/[N+](=O)[O-])c(OC)c1 | – | – | – | – | > 100 µM | 20.1%
11 | COc1cc(/C=C/c2ccc(NC(=O)c3ccc(Br)cc3)cc2)c(/C=C/[N+](=O)[O-])c(OC)c1 | – | – | – | – | > 100 µM | 46.2%
12 | COc1cc(/C=C/c2ccc(NC(=O)c3cccs3)cc2)c(/C=C/[N+](=O)[O-])c(OC)c1 | – | – | – | 2.15 µM | > 100 µM | 66%
13 | COc1cc(/C=C/c2ccc(NC(=O)c3ccccc3Cl)cc2)c(/C=C/[N+](=O)[O-])c(OC)c1 | – | – | – | – | > 100 µM | 28.9%
14 | COc1cc(/C=C/c2ccc(NC(=O)c3ccccc3)cc2)c(/C=C/[N+](=O)[O-])c(OC)c1 | – | – | – | 1.56 µM | > 100 µM | 72.2%
15 | C=C1C(=O)[C@]23[C@H](O)[C@H]1CC[C@H]2[C@@]12CO[C@]3(O)[C@@H](O)[C@@H]1C(C)(C)CC[C@@H]2O [ORIDONIN] | – | – | – | – | 42.2 µM | 73.8%
16 | COc1cc(/C=C/c2ccc(NC(=O)C3CCCO3)cc2)c(/C=C/[N+](=O)[O-])c(OC)c1 (centres undefined) | – | – | – | – | > 100 µM | 65.2%
17 | COc1cc(/C=C/c2ccc(NC(=O)c3ccc(Cl)cc3)cc2)c(/C=C/[N+](=O)[O-])c(OC)c1 | – | – | – | – | > 100 µM | 50%

Row | SMILES | microsomal CLint [1] | CLint scaled [2] | half-life [3] | IC50 [4] | IC50 at 24 h [5] | inhibition [6]
18 | COc1cc(/C=C/c2ccc(NC(=O)c3ccccn3)cc2)c(/C=C/[N+](=O)[O-])c(OC)c1 | – | – | – | – | > 100 µM | 60%
19 | COc1cc(/C=C/c2ccc(NC(=O)c3cccc(C)c3)cc2)c(/C=C/[N+](=O)[O-])c(OC)c1 | – | – | – | – | > 100 µM | 39.9%
20 | COc1cc(/C=C/c2ccc(NC(=O)c3ccoc3)cc2)c(/C=C/[N+](=O)[O-])c(OC)c1 | – | – | – | – | > 100 µM | 64.2%
21 | COc1cc(/C=C/c2ccc(NC(=O)c3ccc(I)cc3)cc2)c(/C=C/[N+](=O)[O-])c(OC)c1 | – | – | – | – | > 100 µM | 30.7%
22 | CCOc1ccc(C(=O)Nc2ccc(/C=C/c3cc(OC)cc(OC)c3/C=C/[N+](=O)[O-])cc2)cc1 | – | – | – | – | > 100 µM | 39.9%
23 | COc1cc(/C=C/c2ccc(NC(=O)COc3ccccc3)cc2)c(/C=C/[N+](=O)[O-])c(OC)c1 | – | – | – | – | > 100 µM | 7.5%
24 | COc1cc(/C=C/c2ccc(NC(=O)c3ccc(C)cc3)cc2)c(/C=C/[N+](=O)[O-])c(OC)c1 | – | – | – | – | > 100 µM | 28.6%
25 | COc1cc(/C=C/c2ccc(NC(=O)c3cccc(F)c3)cc2)c(/C=C/[N+](=O)[O-])c(OC)c1 | – | – | – | – | > 100 µM | 39.9%
26 | COc1cc(/C=C/c2ccc(NC(=O)c3ccc(F)cc3)cc2)c(/C=C/[N+](=O)[O-])c(OC)c1 | – | – | – | 9.34 µM | > 100 µM | 44%
27 | COc1cccc(C(=O)Nc2ccc(/C=C/c3cc(OC)cc(OC)c3/C=C/[N+](=O)[O-])cc2)c1 | – | – | – | – | > 100 µM | 24%
28 | COc1cc(/C=C/c2ccc(NC(=O)c3cc4ccccc4o3)cc2)c(/C=C/[N+](=O)[O-])c(OC)c1 | – | – | – | – | > 100 µM | 6.47%
29 | COc1cc(/C=C/c2ccc(NC(=O)c3ccccc3OC)cc2)c(/C=C/[N+](=O)[O-])c(OC)c1 | – | – | – | – | > 100 µM | 31%
30 | COc1cc(/C=C/c2ccc(NC(=O)c3cccc4ccccc34)cc2)c(/C=C/[N+](=O)[O-])c(OC)c1 | – | – | – | – | > 100 µM | 4.62%
31 | O=[N+]([O-])/C=C/c1ccc2c(c1)OCO2 | – | – | – | – | 39.2 µM | 75.1%
32 | COc1cc(/C=C/c2ccc(NC(=O)c3ccccc3C)cc2)c(/C=C/[N+](=O)[O-])c(OC)c1 | – | – | – | – | > 100 µM | 39%
33 | COc1cc(/C=C/c2ccc(NC(=O)c3ccccc3F)cc2)c(/C=C/[N+](=O)[O-])c(OC)c1 | – | – | – | – | > 100 µM | 38.9%
